From PMC6968383, “Design, synthesis, in vitro and in vivo evaluation of benzylpiperidine-linked 1,3-dimethylbenzimidazolinones as cholinesterase inhibitors against Alzheimer’s disease” (Journal of Enzyme Inhibition and Medicinal Chemistry, 2019) come the findings set out here.

In one assay the target is T1, eeAChE (Electrophorus electricus, UniProt O42275).
T1 construct: purchased Sigma-Aldrich
Description: Kinetic study of AChE inhibition (Lineweaver–Burk). The assay is classed as biochemical. To be noted: Lineweaver–Burk plot, 0, 2, 5, 10, 20 µM. Here is the method:
In each case, the kinetic type of enzyme inhibition was obtained through the modified Ellman’s method and Lineweaver–Burk secondary plots.
Figure 2. […] (B) Lineweaver–Burk plot for the inhibition of eqBChE by compound 15j at different concentrations of substrate.
Kinetic studies were performed in the same manner as the determination of ChEs inhibition, while the substrate (ATC/BTC) was used in concentrations of 90, 150, 226, 452, and 904 µM. The concentrations of test compounds were set to 0, 2, 5, 10, and 20 µM for 15b and 0, 0.5, 1, 2, and 5 µM for 15j. The enzymatic reaction was extended to 7 min for eeAChE and eqBuChE before the determination of the absorption. Vmax and Km values of the Michaelis–Menten kinetics were calculated by nonlinear regression from substrate-velocity curves using GraphPad Prism 6.0. Linear regression was used for fitting the Lineweaver–Burk plots.

The target in assay [1] is T2, AChE (EC 3.1.1.7) from electric eel (Electrophorus electricus, UniProt O42275).
T2 construct: purchased Sigma-Aldrich
T2 sequence (O42275 24-633): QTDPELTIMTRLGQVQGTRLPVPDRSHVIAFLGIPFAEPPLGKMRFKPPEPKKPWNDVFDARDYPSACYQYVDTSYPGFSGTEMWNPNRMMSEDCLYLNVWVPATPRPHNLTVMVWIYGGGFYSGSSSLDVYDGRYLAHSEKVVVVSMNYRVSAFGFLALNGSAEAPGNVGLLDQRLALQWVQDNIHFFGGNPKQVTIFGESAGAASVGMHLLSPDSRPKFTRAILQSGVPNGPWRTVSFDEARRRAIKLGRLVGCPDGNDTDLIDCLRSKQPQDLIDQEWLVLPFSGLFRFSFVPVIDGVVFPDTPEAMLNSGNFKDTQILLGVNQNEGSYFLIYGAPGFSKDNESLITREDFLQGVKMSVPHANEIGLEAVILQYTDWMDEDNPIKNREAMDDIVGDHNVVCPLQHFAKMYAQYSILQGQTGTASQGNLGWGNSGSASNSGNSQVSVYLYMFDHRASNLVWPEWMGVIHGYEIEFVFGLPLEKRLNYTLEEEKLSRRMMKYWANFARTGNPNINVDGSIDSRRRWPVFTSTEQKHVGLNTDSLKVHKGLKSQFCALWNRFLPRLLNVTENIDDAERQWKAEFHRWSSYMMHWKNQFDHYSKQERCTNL
Kind of assay: biochemical. The assay is classed as biochemical. Here is the method:
(§1) The data were expressed as IC50 values (Table 1).
(§2) The inhibitory activities of the target compounds towards AChE (from Electrophorus electricus (electric eeAChE, Sigma-Aldrich) and horse serum BChE (eqBChE, Sigma-Aldrich) or human AChE – huAChE; human BuChE – huBuChE (huAChE, huBuChE, Sigma-Aldrich) were measured by Ellman’s method. In 96-well plates, a mixture of phosphate buffer (0.1 M, pH 8.0, […]), 5,5′-dithiobis-2-nitrobenzoic acid (DTNB, 60 µL), acetylcholinestrase or butyrylcholinesterase (20 µL, 5 IU/mL) and different concentration of the compound solution (30 µL) was pre-incubated for 5 min followed by the addition of the substrate (acetylthiocholine iodide or butyrylthiocholine iodide, 20 µL). […] The measurement of each concentration for each compound was detected in triplicate. GraphPad Prism 6.0 (GraphPad Software, Inc., La Jolla, CA) was used for data processing. The inhibition curve was fitted by plotting percentage enzyme activity (100% for the reference) versus the logarithm of the concentration of tested compound. The half-maximal inhibitory concentration (IC50) values were calculated according to the inhibition curve and the data were shown in the layout of mean ± SEM by GraphPad Prism 6.0.

Assay [2] addresses T3, BChE (EC 3.1.1.8) from horse serum (Equus caballus, UniProt P81908).
T3 construct: horse serum BChE (eqBChE, Sigma-Aldrich); purchased Sigma-Aldrich; host or cells: horse serum
Description: biochemical. The note with it: eqBChE; mean ± SEM of triplicate independent experiments; read-out: BChE IC50. How it is done: as §1, §2

T1 sequence (O42275 24-633): as above
T3 sequence (P81908 whole entry): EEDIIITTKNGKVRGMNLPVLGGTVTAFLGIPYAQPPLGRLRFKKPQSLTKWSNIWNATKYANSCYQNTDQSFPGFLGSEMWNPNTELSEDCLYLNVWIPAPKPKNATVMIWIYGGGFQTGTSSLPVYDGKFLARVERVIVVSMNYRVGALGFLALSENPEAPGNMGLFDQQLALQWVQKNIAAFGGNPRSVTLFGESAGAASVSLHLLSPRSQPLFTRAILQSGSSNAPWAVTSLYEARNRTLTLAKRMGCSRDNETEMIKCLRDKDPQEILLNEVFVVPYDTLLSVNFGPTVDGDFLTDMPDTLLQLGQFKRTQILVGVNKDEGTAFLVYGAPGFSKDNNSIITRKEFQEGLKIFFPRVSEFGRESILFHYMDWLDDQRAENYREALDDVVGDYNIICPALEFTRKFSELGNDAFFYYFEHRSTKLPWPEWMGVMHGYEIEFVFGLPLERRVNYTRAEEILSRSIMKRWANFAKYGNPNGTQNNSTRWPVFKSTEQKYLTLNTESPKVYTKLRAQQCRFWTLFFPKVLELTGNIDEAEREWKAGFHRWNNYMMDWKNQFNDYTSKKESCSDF

Consider `Cc1ccccc1CN1CCC(CNS(=O)(=O)c2ccc3c(c2)n(C)c(=O)n3C)CC1` [Compound 15b, 1,3-dimethyl-N-((1–(2-methylbenzyl)piperidin-4-yl)methyl)-2-oxo-2,3-dihydro-1H-benzo[d]imidazole-5-sulphonamide], for which, on eeAChE, the “kinetic type of AChE inhibition” value is reported as “competitive”.

With `Cn1c(=O)n(C)c2cc(S(=O)(=O)NCC3CCN(Cc4cccc(Br)c4)CC3)ccc21` [Compound 15j, N-((1–(3-bromobenzyl)piperidin-4-yl)methyl)-1,3-dimethyl-2-oxo-2,3-dihydro-1H-benzo[d]imidazole-5-sulphonamide], the “SI (selectivity index = AChE IC50/BChE IC50)” value in assay [1] (eeAChE IC50 / eqBChE IC50) was determined as 2.44. Moreover, the IC50 in assay [1] (eeAChE, mean ± SEM of triplicate independent experiments, read-out: AChE IC50) was determined as 0.39 ± 0.15 µM; in assay [2], 0.16 ± 0.04 µM.

One may read the IC50 as the midpoint of a concentration-inhibition curve.
